The values that follow come from patent publication US20260042755A1, “GPR6 INVERSE AGONISTS” (MapLight Therapeutics, Inc., priority 2022, published 2026).

Each structure is given as a SMILES string.

One assay deals with T1, GPR6 (Homo sapiens, UniProt P46095).
T1 construct: expressed in transfected cells; host or cells: CHO cells
The assay can be described thus: GPR6 antagonist functional cAMP assay (LANCE Ultra cAMP TR-FRET, CHO cells stably expressing GPR6). In kind it is cell-based. The settings on record: CHO cells stably expressing GPR6, cAMP assay. The procedure, abridged:
(§1)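 Stable CHO-GPR6 or CHO-GPR3 cells (10,000/well) in Krebs-Ringer buffer with 0.1% BSA and 150 μM Ro 20-1724 were exposed to compounds for 45 min at 37° C (0.1% DMSO). cAMP read by LANCE Ultra TR-FRET; IC50 from 4-parameter fit normalized to DMSO and reference compounds.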
In general terms: Cyclic AMP is a second messenger, typically raised through Gs and lowered through Gi signalling.

For the next assay, the target named is T2, GPR3 (Homo sapiens, UniProt P46089).
T2 construct: expressed in transfected cells; host or cells: CHO cells
Nature of the assay: GPR3 antagonist functional cAMP assay (LANCE Ultra cAMP TR-FRET, CHO cells stably expressing GPR3). In kind it is cell-based. The settings on record: CHO cells stably expressing GPR3, cAMP assay. The gist of the method:
as §1

T2 sequence (P46089 whole entry, species assumed): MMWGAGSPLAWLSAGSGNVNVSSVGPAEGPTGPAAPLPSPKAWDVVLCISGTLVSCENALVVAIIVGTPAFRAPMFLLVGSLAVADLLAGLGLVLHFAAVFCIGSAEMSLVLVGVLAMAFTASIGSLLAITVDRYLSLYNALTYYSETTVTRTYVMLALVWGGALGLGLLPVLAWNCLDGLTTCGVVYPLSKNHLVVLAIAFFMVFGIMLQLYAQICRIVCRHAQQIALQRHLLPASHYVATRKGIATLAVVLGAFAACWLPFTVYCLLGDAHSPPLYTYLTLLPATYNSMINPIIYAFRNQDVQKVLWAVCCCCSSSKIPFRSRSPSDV
T1 sequence (P46095 whole entry): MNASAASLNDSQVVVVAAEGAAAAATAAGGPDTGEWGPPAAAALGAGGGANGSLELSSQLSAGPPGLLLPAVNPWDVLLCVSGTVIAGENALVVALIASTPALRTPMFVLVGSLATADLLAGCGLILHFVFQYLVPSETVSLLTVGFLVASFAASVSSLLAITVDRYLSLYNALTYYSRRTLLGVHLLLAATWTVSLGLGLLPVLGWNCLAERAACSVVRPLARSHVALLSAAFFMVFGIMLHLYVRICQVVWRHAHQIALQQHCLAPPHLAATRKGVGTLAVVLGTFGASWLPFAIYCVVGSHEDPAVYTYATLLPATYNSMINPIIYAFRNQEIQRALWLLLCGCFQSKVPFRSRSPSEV

In general, IC50 refers to the concentration that inhibits the measured activity by half. A low value points to inhibition by little substance. In the case of `CC(=O)N1CCc2nc(N3CCN(Cc4ccncc4)CC3)c(-c3cnn(C)c3)nc2C1` [Compound 518, 1-[3-(1-methyl-4-pyrazolyl)-2-{4-[(4-pyridyl)methyl]-1-piperazinyl}-5,6,7,8-tetrahydro-1,4,6-triaza-6-naphthyl]-1-ethanone], the IC50 at GPR6 and at GPR3 was 1 to 30 µM each time.

On to `CCn1cc(-c2nc3c(nc2N2CCC(Oc4ccc(F)cc4F)CC2)CCN(C(=O)C(C)(O)CO)C3)cn1` (centres unmarked) [Compound 519, 1-{2-[4-(2,4-difluorophenoxy)-1-piperidyl]-3-(1-ethyl-4-pyrazolyl)-5,6,7,8-tetrahydro-1,4,6-triaza-6-naphthyl}-2,3-dihydroxy-2-methyl-1-propanone], for which the results for the IC50 against GPR6 and against GPR3 were 0.1 to 1 µM and 1 to 30 µM, respectively.

Consider `COC1CCC(c2nc3c(nc2N2CCC(Oc4ccc(F)cc4F)CC2)CCN(C(=O)CO)C3)CC1` (centres unmarked) [Compound 520, 1-{2-[4-(2,4-difluorophenoxy)-1-piperidyl]-3-(4-methoxycyclohexyl)-5,6,7,8-tetrahydro-1,4,6-triaza-6-naphthyl}-2-hydroxy-1-ethanone], for which the IC50 on GPR6 and against GPR3 was 1 to 30 µM throughout.

Take `CCn1cc(-c2nc3c(nc2N2CCC(Oc4ccc(F)cc4F)CC2)CCN(C(=O)C(O)C(C)(C)O)C3)cn1` (centres unmarked) [Compound 521, 1-{2-[4-(2,4-difluorophenoxy)-1-piperidyl]-3-(1-ethyl-4-pyrazolyl)-5,6,7,8-tetrahydro-1,4,6-triaza-6-naphthyl}-2,3-dihydroxy-3-methyl-1-butanone]: the IC50 against GPR6 was 0.1 to 1 µM; at GPR3 it was 1 to 30 µM.

Take `CC(=O)N1CCc2nc(N3CCC(Cn4ccccc4=O)CC3)c(-c3cnn(C)c3)nc2C1` [Compound 522, 1-({1-[6-acetyl-3-(1-methyl-4-pyrazolyl)-5,6,7,8-tetrahydro-1,4,6-triaza-2-naphthyl]-4-piperidyl}methyl)-2(1H)-pyridinone]: the IC50 against GPR6 and against GPR3 was 1 to 30 µM each time.

For `CC(=O)N1CCc2nc(N3CCN(C(O)c4cocn4)CC3)c(-c3cnn(C)c3)nc2C1` (centres unmarked) [Compound 523, 1-(2-{4-[hydroxy(1,3-oxazol-4-yl)methyl]-1-piperazinyl}-3-(1-methyl-4-pyrazolyl)-5,6,7,8-tetrahydro-1,4,6-triaza-6-naphthyl)-1-ethanone], the half-inhibitory concentration (IC50) on GPR6 and against GPR3 was not below 30 µM throughout.

For the molecule `CC(=O)N1CCc2nc(N3CCN(Cc4ccn[nH]4)CC3)c(-c3cnn(C)c3)nc2C1` [Compound 524, 1-[3-(1-methyl-4-pyrazolyl)-2-{4-[(5-pyrazolyl)methyl]-1-piperazinyl}-5,6,7,8-tetrahydro-1,4,6-triaza-6-naphthyl]-1-ethanone], the IC50 against GPR6 and against GPR3 was not below 30 µM throughout.

`CC(=O)N1CCc2nc(N3CCN(Cc4ccnn4C)CC3)c(-c3cnn(C)c3)nc2C1` [Compound 525, 1-[3-(1-methyl-4-pyrazolyl)-2-{4-[(1-methyl-5-pyrazolyl)methyl]-1-piperazinyl}-5,6,7,8-tetrahydro-1,4,6-triaza-6-naphthyl]-1-ethanone]: the IC50 against GPR6 and against GPR3 was not below 30 µM in each case.

As to `CC(=O)N1CCc2nc(N3CCN(Cc4cnn(C)c4)CC3)c(-c3cnn(C)c3)nc2C1` [Compound 526, 1-[3-(1-methyl-4-pyrazolyl)-2-{4-[(1-methyl-4-pyrazolyl)methyl]-1-piperazinyl}-5,6,7,8-tetrahydro-1,4,6-triaza-6-naphthyl]-1-ethanone], the results for the IC50 against GPR6 and against GPR3 were not below 30 µM and 0.1 to 1 µM, respectively.

For the molecule `CC(=O)N1CCc2nc(N3CCN(Cc4cn(C)cn4)CC3)c(-c3cnn(C)c3)nc2C1` [Compound 528, 1-(2-{4-[(1-methyl-4-imidazolyl)methyl]-1-piperazinyl}-3-(1-methyl-4-pyrazolyl)-5,6,7,8-tetrahydro-1,4,6-triaza-6-naphthyl)-1-ethanone], the IC50 at GPR6 and at GPR3 was not below 30 µM each time.
